Assay results from patent publication US7345033B2, “Carbamoyl-and thiocarbamoyl-phosphonates and pharmaceutical compositions comprising them” (Yissum Research Development Company of the Hebrew …, priority 2003, dated 2008).
pIC50: −log10 of the molar value. “Also recorded” adds a separate entry of the source. Read-outs that look alike come from different tables or passages of the source.

Experiments:
[1] = test system: murine melanoma; experiment: Tumor growth and metastasis in vivo, murine melanoma model; parameters: species or system mice; settings: Mus musculus, 504 h
Excerpt: Tumor Growth and Metastasis in Animal Models—in vivo Test
The abilities of the novel carbamoylphosphonates to inhibit the formation of metastatic lesions in vivo were examined in the murine melanoma model both by intraperitoneal (IP) and peroral (PO) administration. […] This is especially important, since oral administration is the most convenient one for the patient, especially for long term chronic treatments such as those envisaged for drugs that are the subject of this application.

[2] = molecular target: MMP-3 (Homo sapiens, UniProt P08254); experiment: Selectivity towards different MMPs: MMP-3; assay type: biochemical; settings: Table 2
[3] = molecular target: T1, MMP-1 (Homo sapiens, UniProt P03956); experiment: Selectivity towards different MMPs: MMP-1; assay type: biochemical; settings: Table 2
T1 sequence (P03956 100-469): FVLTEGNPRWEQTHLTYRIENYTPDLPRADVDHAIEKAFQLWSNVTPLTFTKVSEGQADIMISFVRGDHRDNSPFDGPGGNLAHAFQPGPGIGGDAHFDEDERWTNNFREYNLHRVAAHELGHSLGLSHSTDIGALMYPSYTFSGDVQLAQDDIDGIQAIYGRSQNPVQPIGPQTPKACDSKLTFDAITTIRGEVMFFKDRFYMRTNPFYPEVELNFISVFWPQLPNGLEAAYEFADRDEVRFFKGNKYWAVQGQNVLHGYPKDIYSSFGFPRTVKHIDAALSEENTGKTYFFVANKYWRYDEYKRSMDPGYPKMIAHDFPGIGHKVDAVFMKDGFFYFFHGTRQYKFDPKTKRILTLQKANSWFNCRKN

[4] = test system: Human prostate tumor cells DU145, PC3 or LMCap; experiment: Orthotopic prostate tumor model; assay type: in vivo, mice; settings: 50 mg/kg IP daily for 5 weeks, vs untreated control
Experimental: Human prostate tumor cells DU145, PC3 or LMCap transfected with a luciferase gene were injected orthotopically into the prostate of male mice (2×10^6 cells/mouse). […] The mice were monitored for local tumor growth and metastasis formation with a cooled charged coupled device camera (CCCD) sensitive to photons, weekly, starting 14 days after tumor implantation. The emitted photons are converted into a digitalized image proportional to the amount of photons emitted by the tumor cell upon exposure to luciferin.

[5] = Acute in vivo toxicity in healthy mice; settings: daily for two weeks at 50, 250 and 500 mg/kg
Excerpt: Determination of Acute in vivo Toxicity of Representative Carbamoylphosphonates

[6] = molecular target: MMP-8 (Homo sapiens, UniProt P22894); experiment: Selectivity towards different MMPs: MMP-8; assay type: biochemical; settings: Table 2
[7] = test system: cancer cells; experiment: Matrigel chemoinvasion assay (Boyden chambers); assay type: cell-based; settings: 6 h, read-out: Chemoinvasion % inhibition at 50 μM
Excerpt: Matrigel Chemoinvasion Assay
This assay measures in vitro the potency of the compounds to repress the invasiveness of cancer cells, by inhibiting the MMPs produced by them. The assay uses a reconstituted basement membrane preparation, which is similar to the natural basement membranes that the tumor cells have to cross, in order to disseminate. The compounds examined have been added to the invasion chambers at various concentrations, and the resulted invasion was compared to untreated preparations.
Description of the of the Matrigel Chemoinvasion Experiment
a) The chemoinvasion assays were performed in Boyden chambers. Matrigel (25 μg) was dried on a polycarbonated filter (PVP free, Nucleopore). Fibroblast conditioned medium (obtained from confluent NIH-3T3 cells cultured in serum free DMEM) is used as the chemoattractant. […] The chambers were incubated in a humidified incubator at 37° C. in 5% CO2/95% air atmosphere for 6 h. The cells, which traversed the Matrigel layer and attached to the lower surface of the filter, were stained with Diff Quick (American Scientific Products) and counted.
The various compounds were examined as potential inhibitors at three concentrations: 100 μM, 50 μM and 10 μM.

[8] = molecular target: T2, recombinant MMP-2 (Homo sapiens, UniProt P08253); experiment: MMP inhibitory potency in vitro, succinylated-gelatin colorimetric assay; assay type: biochemical
T2 construct: purchased
T2 sequence (P08253 110-660): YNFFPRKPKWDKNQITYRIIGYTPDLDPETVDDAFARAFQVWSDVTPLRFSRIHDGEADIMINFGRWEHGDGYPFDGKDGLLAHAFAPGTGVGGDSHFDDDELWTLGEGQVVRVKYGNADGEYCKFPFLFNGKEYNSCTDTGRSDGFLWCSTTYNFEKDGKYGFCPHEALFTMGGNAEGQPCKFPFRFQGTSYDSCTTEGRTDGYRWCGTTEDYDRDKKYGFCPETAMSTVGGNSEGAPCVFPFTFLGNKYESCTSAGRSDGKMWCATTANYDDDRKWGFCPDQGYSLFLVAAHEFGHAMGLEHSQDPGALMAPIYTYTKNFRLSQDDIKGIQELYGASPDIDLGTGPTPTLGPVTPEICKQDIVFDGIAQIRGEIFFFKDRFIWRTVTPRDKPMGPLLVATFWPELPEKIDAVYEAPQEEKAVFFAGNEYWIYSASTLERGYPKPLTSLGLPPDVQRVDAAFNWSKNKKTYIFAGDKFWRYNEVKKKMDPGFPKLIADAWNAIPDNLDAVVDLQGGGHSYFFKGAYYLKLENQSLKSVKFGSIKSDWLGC
Experimental: (§1) Determination of MMP Inhibitory Potency (IC50 Values) in vitro
(§2) The commercially available recombinant MMP-2 and MMP-9 enzymes were incubated with succinylated-gelatin at four different concentrations for 3 h. The examined compounds were added at four to six different concentrations to the recombinant enzymes and the inhibitory potencies were expressed in a colorimetric change measured by an ELISA reader. The inhibitory activity (IC50) was calculated from the kinetic data obtained.

[9] = molecular target: T3, recombinant MMP-9 (Homo sapiens, UniProt P14780); experiment: as above; assay type: biochemical
T3 construct: purchased
Experimental: as §1, §2

[10] = test system: restenosis; experiment: Rabbit model of restenosis (balloon injury, hypercholesterolemic); assay type: in vivo, New Zealand White rabbits; settings: IP, total 70 mg/kg in 5 doses on days -1, +1, +4, +6, +8; after 30 days
Experimental: Rabbit Model of Restenosis
New Zealand White rabbits (Harlan Laboratories, Jerusalem, Israel) weighing 2.5 to 3.5 kg were used in accordance with the guidelines for animal care of the Hebrew University of Jerusalem and National Institutes of Health (USA). Animals were fed an atherogenic diet of 2% cholesterol and 6% peanut oil, starting 30 days before angioplasty. Hypercholesterolemia was ascertained (plasma cholesterol: 1200 mg/dL). Animals were anesthetized by xylazine (7 mg/kg) and ketamine (40 mg/kg). Heparin (200 U/kg), atropine (0.05 mg), and norfloxacin nicotinate (70 mg) were given. […] The control animals received saline. An investigator blinded to the type of experimental group performed the experiments. After euthanasia with pentothal, arteries were perfusion-fixed in situ with 150 mL of 4% formaldehyde solution (pH 7.4), processed for morphometric analysis, and stained with Verhoeff elastin staining, Mayer hematoxylin and eosin, and modified Movat pentachrome. Five animals were used in the experiment and five in the control group.
The marked inhibition of restenosis is unparalleled to other therapeutic modalities in this model (various antiinflammatories or antiproliferative agents). […] It should be noted that the larger lumen in the treatment group was achieved despite the general smaller size of the artery.

[11] = test system: Endothelial cells; experiment: Endothelial cell capillary tube formation; assay type: cell-based; settings: read-out: Capillary Formation Inhibition % At 50 μM
Excerpt: Endothelial Cell Capillary Tube Formation
Some of the compounds were examined as to their potency to inhibit capillary formation, which is an in vitro model of angiogenesis, an essential step in the development of primary tumor and metastatic lesions. Endothelial cell migration to the newly formed tumor is the initial phase of angiogenesis, and is dependent on MMP expression. By using this assay that measures endothelial cell tube formation, the effects of some carbamoylphosphonates on angiogenesis at concentrations ranging from 100-5 μM were evaluated.
Description of the Endothelial Cell Capillary Tube Formation Experiment
Endothelial cells are harvested by 1 mM EDTA, and added to a Matrigel layer in a 24 well plate at 50,000 cells per well. After attachment, culture media (1 ml) is added and the plate is incubated as a monolayer culture. The plates are analyzed hourly using Hoffinan optics. This assay is used to evaluate inhibitory factors or stimulatory factors on capillary like structure formation, which may be added into the culture media.

MMP-3, sequence (P08254 100-477, species assumed): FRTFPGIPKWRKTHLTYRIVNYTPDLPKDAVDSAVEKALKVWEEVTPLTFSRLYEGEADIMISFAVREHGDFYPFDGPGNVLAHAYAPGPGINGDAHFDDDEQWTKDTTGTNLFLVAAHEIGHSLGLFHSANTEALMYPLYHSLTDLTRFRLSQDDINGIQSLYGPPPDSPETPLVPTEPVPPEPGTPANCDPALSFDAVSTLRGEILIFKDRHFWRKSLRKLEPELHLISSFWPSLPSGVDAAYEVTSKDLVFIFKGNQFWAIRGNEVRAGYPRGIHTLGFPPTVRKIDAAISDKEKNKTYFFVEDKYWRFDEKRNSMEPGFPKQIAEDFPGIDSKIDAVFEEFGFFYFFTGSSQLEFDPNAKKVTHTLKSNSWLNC
T3 sequence (P14780 94-707, species assumed): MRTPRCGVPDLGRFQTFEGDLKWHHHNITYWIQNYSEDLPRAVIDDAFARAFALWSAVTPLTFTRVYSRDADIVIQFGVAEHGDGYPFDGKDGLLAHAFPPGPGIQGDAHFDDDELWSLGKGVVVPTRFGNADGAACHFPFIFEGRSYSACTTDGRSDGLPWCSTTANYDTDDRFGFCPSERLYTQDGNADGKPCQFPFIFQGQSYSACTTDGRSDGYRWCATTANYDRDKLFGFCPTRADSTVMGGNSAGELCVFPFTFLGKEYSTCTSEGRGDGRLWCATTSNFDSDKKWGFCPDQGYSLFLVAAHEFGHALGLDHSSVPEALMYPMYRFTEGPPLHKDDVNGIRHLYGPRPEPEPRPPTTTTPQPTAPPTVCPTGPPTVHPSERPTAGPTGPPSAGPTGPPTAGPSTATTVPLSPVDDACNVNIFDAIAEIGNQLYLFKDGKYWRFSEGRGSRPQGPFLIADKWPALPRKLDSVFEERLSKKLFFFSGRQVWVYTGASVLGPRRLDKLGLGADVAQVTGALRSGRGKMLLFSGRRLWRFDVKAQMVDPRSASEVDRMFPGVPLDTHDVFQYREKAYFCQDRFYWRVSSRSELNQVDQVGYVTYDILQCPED
MMP-8, sequence (P22894 101-467, species assumed): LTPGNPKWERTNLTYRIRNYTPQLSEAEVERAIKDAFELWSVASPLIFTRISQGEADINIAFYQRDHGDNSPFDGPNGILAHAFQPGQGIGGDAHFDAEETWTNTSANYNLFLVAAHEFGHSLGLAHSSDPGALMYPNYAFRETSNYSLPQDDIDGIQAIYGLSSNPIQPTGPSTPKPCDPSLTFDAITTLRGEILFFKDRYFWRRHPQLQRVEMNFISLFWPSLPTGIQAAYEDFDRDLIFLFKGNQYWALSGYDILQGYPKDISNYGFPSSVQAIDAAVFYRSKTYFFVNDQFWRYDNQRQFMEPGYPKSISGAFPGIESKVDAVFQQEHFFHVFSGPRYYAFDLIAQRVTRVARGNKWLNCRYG

Compound `N[C@@H]1CCCC[C@@H]1NC(=O)P(=O)(O)O` (relative stereo) [Compound 11, N-(cis-2-aminocyclohexyl)carbamoylphosphonic acid] has an inhibition in vivo at 50 mg/kg ([1]; ip, read-out: In vivo murine melanoma % reduction IP) of 77%, an inhibition in vivo at 50 mg/kg ([1]; po, read-out: In vivo murine melanoma % reduction PO) of 86% and a pIC50 [2] of less than 4.00. The pIC50 [3] was less than 4.00, the “tumor dissemination (metastatic spread)” value [4] was “significantly lower tumor dissemination” and the “tumor volume (local tumor growth)” value [4] was “significantly lower tumor volume”. The toxicity [5] was “devoid of any toxicity even at 10 times the effective dose, namely at 500 mg/kg”, the pIC50 [6] was less than 4.00 and the inhibition at 50 µM [7] was 62%. The pIC50 [8] was 7.22, the pIC50 [9] was 4.70 and the inhibition of restenosis [10] was “significant and marked inhibition of restenosis; also recorded: selective in vivo activity against restenosis”. For the same compound, the inhibition at 50 µM [11] was 72%.
